According to patent US8207119B2, “Ophthalmological composition” (Nihon Tenganyaku Kenkyusho Co., Ltd., priority 2002, dated 2012):

Assays:
[1] = test system: rabbit corneal wound model; assay: Corneal wound healing promotion action 1 (in vivo), approx. 6 mm corneal epithelial abrasion; design: species or system Japanese white rabbit; conditions: 5 μM eye drop, 30 μl per instillation; 0 hr after abrasion; mean ± SD, n=6
Method: (2) Corneal Wound Healing Promotion Action 1 (In Vivo)
Using a male Japanese white rabbit, a wound of approximately 6 mm in diameter was produced in the cornea by inducing corneal epithelial abrasion in accordance with the method of Cintron et al. (Ophthalmic Res., 11, pp. 90-96 (1979)). The wound area was measured using the fluorescein-stained area as an index. The effects of the test compound on corneal wound healing were examined.
The eye drops containing the respective concentrations of the test compound were instilled (30 μl at a time) at 0, 3, 6, 9, 12, 18, 24, 27, 30, 33, 36, 42, and 48 hours after inducing corneal epithelial abrasion. In measuring the wound area, fluorescein staining was carried out and a photograph of the cornea was measured. The fluorescein-stained area of the photographed cornea was computed using an image analysis processing system.
(§1) In Tables 1 and 2, the respective values indicate the mean value±standard deviation (n=6). Statistical analysis was carried out using Dunnett's multiple comparison with respect to PBS with the area of the corneal wound portion immediately after (0 hours after) corneal epithelial abrasion being set to 100% (*p<0.05, **p<0.01; vs. control).

[2] = test system: rabbit corneal wound model; assay: Corneal wound healing promotion action 2 (in vivo), approx. 8 mm corneal epithelial abrasion; design: species or system Japanese white rabbit; conditions: 0.3% eye drop, 25 μl per instillation; 0 hr after abrasion; mean ± SD, n=6
Method: (3) Corneal Wound Healing Promotion Action 2 (In vivo)
Using the same method as (2) above, corneal epithelial abrasion was induced in a Japanese white rabbit to produce a wound of approximately 8 mm in diameter in the cornea. The wound area was measured using the fluorescein-stained area as an index to examine the effects on corneal wound healing.
The eye drops containing the respective concentrations of the test compound were instilled (25 μl at a time) at 0, 6, 12, 18, 24, 30, 36, 42, 48, and 54 hours after induction corneal epithelial abrasion. In measuring the wound area, fluorescein staining was carried out and a photograph of the cornea was measured. The fluorescein-stained area of the photographed cornea was computed using an image analysis processing system.
as §1, with “Tables 3” for “Tables 1”, “and 4,” for “and 2,”, “to physiological saline” for “to PBS”

| Substance | Healing ratio (%) [1] [%] | Healing ratio (%) [2] [%] |
| --- | --- | --- |
| EGF: polypeptide with a molecular weight of 6000, mitosis-promoting growth factor for corneal epithelium (NSDSECPLSHDGYCLHDGVCMYIEALDKYACNCVVGYIGERCQYRDLKWWELR; Epidermal growth factor; UniProt P01133 971-1023, looked up) | 0 |  |
| hyaluronic acid |  | 0 |
